Tests used:
[1] = system: Green Peach Aphid (Myzus persicae); experiment: Green peach aphid root uptake assay on pepper; assay type: in vivo; conditions: 3 days after infestation
Description: These assays were designed to evaluate the possibility of using the compounds identified in the foregoing examples for applications such as nursing trays, transplanting water and/or irrigation. Systemic activity against green peach aphid was evaluated in a root uptake assay. Bell peppers (Capsicum annum var. California Wonder) were used as test plants seeded and grown in rock wool plugs. Plants were grown to expanding 1st true leaf stage. The rock wool plugs containing individual plants were placed in 1-ounce cups and surrounded with white clean sand. Five plants were used for each treatment. A volume of 5 mL of the test solutions was applied to each cup (each plant). After insecticide application, the seedlings were infested with green peach aphids and held in a growth chamber (25° C., 50% RH, 16 hr light: 8 hr dark). Number of live aphids on each plant was counted at 3 days after infestation. Calculations for % Control were based on a corrected basis compared to the populations on the reference plants.
Corrected % Control=100*(X−Y)/X • where X=No. of live aphids on reference plants • Y=No. of live aphids on treated plants Assay 1: Compound (3) was tested at a dose range of 5-500 μg/plant. A stock solution of 1000 ppm (1 mg/mL) was made by dissolving technical test compound in acetone:ethanol (90:10). The highest test concentration (100 ppm, 500 μg/5 ml) was prepared by diluting 2.5 mL stock solution with 22.5 mL DI water. The lower test concentrations (25 mL) were similarly prepared by diluting aliquots of the stock solution with DI water. Reference plants received DI water only.
Assay 2: Compound (2) was tested at a dose range of 0.08-50 μg/plant. A stock solution of 1000 ppm was made by dissolving 2 mg of technical test compound in 2 mL acetone. The highest test concentration (10 ppm, 50 μg/5 ml) was prepared by diluting 0.32 mL stock solution with 1.6 mL acetone and 30.08 mL DI water, containing 6% acetone. Lower test concentrations were prepared by sequentially diluting 6.5 mL higher concentration (start from the 10 ppm test solution) with 26.0 ml acetone: DI water (6:94). The solvent/diluent system (6% acetone) was used as reference.

[2] = system: Eastern Subterranean Termite (Reticulitermes flavipes); experiment: Eastern subterranean termite filter paper assay; assay type: in vivo
Description: Activity of Compound (2) was evaluated for its activity on Eastern subterranean termite. Technical material of the test compound was formulated in acetone on a wt/wt basis to deliver 1000, 500, 200, 50, 12.5, 3.12 and 0.78 ppm to 42.5 mm Whatman No. 1 filter papers per 200 ul of pipetted solution. Each test concentration was applied to six filter papers (6 reps). Six acetone-only control units and six DI water-only control units were also prepared. The filter papers were dried overnight in the fume hood before they were placed into 60×15 mm Fisher Brand plastic Petri dishes. A volume of 200 ul DI water was pipetted onto each Filter paper at the time of test set-up, just prior to infesting with termites. Ten worker termites were added to each Petri dish and covered. The infested Petri dishes were put in the laboratory Conviron at 28° C. and 60% RH. Termite mortality was recorded at 1, 2, 4, 7, and 10 days after infestation (DAI). Throughout the duration of the test, an average of 150 ul of DI water was added daily to the filter papers to retain moisture.

SMILES: CC(c1ccc(Cl)nc1)S(C)(=O)=NC#N (stereo not drawn) [Compound 2, [1-(6-chloropyridin-3-yl)ethyl](methyl)oxido-λ^4-sulfanylidenecyanamide]
- % Control, root uptake systemic ([1]; 0.08 μg/plant): 41%
- % Control, root uptake systemic ([1]; 0.4 μg/plant): 48%
- % Control, root uptake systemic ([1]; 2 μg/plant): 95%
- % Control, root uptake systemic ([1]; 10 μg/plant): 99%
- mortality at 0.78 ppm ([2]; 1 DAI): 0%
- mortality at 0.78 ppm ([2]; 2 DAI): 2%
- mortality at 0.78 ppm ([2]; 4 DAI): 2%
- mortality at 0.78 ppm ([2]; 7 DAI): 7%
- mortality at 0.78 ppm ([2]; 10 DAI): 10%
- mortality at 3.13 ppm ([2]; 1 DAI): 0%
- mortality at 3.13 ppm ([2]; 2 DAI): 3%
- mortality at 3.13 ppm ([2]; 4 DAI): 43%
- mortality at 3.13 ppm ([2]; 7 DAI): 60%
- mortality at 3.13 ppm ([2]; 10 DAI): 60%
- mortality at 12.5 ppm ([2]; 1 DAI): 15%
- mortality at 12.5 ppm ([2]; 2 DAI): 32%
- mortality at 12.5 ppm ([2]; 4 DAI): 60%
- mortality at 12.5 ppm ([2]; 7 DAI): 63%
- mortality at 12.5 ppm ([2]; 10 DAI): 63%
- mortality at 50 ppm ([2]; 1 DAI): 15%
- mortality at 50 ppm ([2]; 2 DAI): 27%
- mortality at 50 ppm ([2]; 4 DAI): 67%
- mortality at 50 ppm ([2]; 7 DAI): 92%
- mortality at 50 ppm ([2]; 10 DAI): 93%
- mortality at 200 ppm ([2]; 1 DAI): 37%
- mortality at 200 ppm ([2]; 2 DAI): 58%
- mortality at 200 ppm ([2]; 4 DAI): 87%
- mortality at 200 ppm ([2]; 7 DAI): 97%
- mortality at 200 ppm ([2]; 10 DAI): 100%
- mortality at 500 ppm ([2]; 1 DAI): 38%
- mortality at 500 ppm ([2]; 2 DAI): 60%
- mortality at 500 ppm ([2]; 4 DAI): 93%
- mortality at 500 ppm ([2]; 7 DAI): 100%
- mortality at 500 ppm ([2]; 10 DAI): 100%
- mortality at 1000 ppm ([2]; 1 DAI): 47%
- mortality at 1000 ppm ([2]; 2 DAI): 68%
- mortality at 1000 ppm ([2]; 4 DAI): 92%
- mortality at 1000 ppm ([2]; 7 DAI): 100%
- mortality at 1000 ppm ([2]; 10 DAI): 100%
